pEC50: −log10 of the molar value. Where “and” joins values, the source holds several entries; their conditions need not be identical. Equal entries are not always repeated. A value given as a limit tells only on which side of the number the result lay.

This assay relates to THP-1 viability, CellTiter-Glo luminescence, 72 h. The experiment in a line: PubChem AID 2252.

For the molecule `Cc1ccc(NC(=O)CS(=O)CC(=O)Nc2ccccc2-c2ccc(C)o2)cc1` (stereo not drawn), the pEC50 was 4.66.
As for `CC(Nc1nc(N2CCCC2)nc2ccccc12)c1ccccc1` (stereo not drawn), the pEC50 was 5.03.
As for `C/C(=N\NC(=O)c1ccc(Cl)cc1)c1ccccn1`, the figure is 6.01.
On to `COc1ccccc1C(=O)NNC1=C(C(=O)C(F)(F)F)CCC1`, for which the pEC50 is 4.82.
As for `COc1ccc(Nc2c3c(nc4ccc(C)cc24)CCC3)cc1`, the pEC50 is 4.72.
As for `CC1(C)N=C(N)NC(Nc2ccc(Br)cc2)=N1`, the figure is 5.15; as for `O=C(Oc1c(Cl)cc(Cl)c2cccnc12)c1ccco1`, 4.93.
In the case of `C[n+]1c2n(c3ccccc31)N=C(c1ccc(-c3ccccc3)cc1)CS2` it was 5.41; in that of `CCN(CC)CCCCCCCCOC(=O)c1cc(OC)c(OC)c(OC)c1`, 4.32; in that of `CCN(CC)c1ccc(CNc2nc3ccccc3n2CCN2CCCCC2)cc1`, 4.78.
With `O=C(N=Nc1c(O)[nH]c2ccccc12)c1cc(-c2cccs2)[nH]n1`, the pEC50 was more than 7.00.
As for `O=C1C(SCCO)=C(SCCO)C(=O)c2ccccc21`, the figure is 5.44; as for `Nc1nc(=S)c2[nH]cnc2[nH]1`, 6.49.
Turning to `Nc1ncn(C2O[C@H](CO)[C@@H](O)[C@H]2O)c(=O)n1` (stereo partly drawn), the pEC50 is 4.85.
For the molecule `CCCCCCCNC(=O)C1(CC2CC(c3cccc(Br)c3)=NO2)CCNCC1` (stereo not drawn), the pEC50 is 5.15.
`Oc1ccccc1C(Nc1nccs1)c1ccc2cccnc2c1O` (stereo not drawn): the pEC50 is 5.68.
As for `COc1cc([N+](=O)[O-])cc(/C=N/NC(=O)C(O)(c2ccccc2)c2ccccc2)c1O`, the figure is 4.60; as for `CC(C)CCC(CCNCc1ccccn1)c1ccc(Cl)cc1` (stereo not drawn), 4.79; as for `CN(C)c1ccc(O)c2c1CC1CC3C(N(C)C)C(=O)C(C(N)=O)=C(O)[C@@]3(O)C(=O)C1=C2O` (stereo partly drawn), 4.47.
For the molecule `CC(C)NC(=O)CN1CCN(Cc2nc(C(c3ccccc3)c3ccccc3)no2)CC1`, the pEC50 is more than 7.00.
As for `COc1ccc(/C=C/C(=O)NC(=S)NNC(=O)c2cnccn2)cc1`, the figure is 5.55; as for `O=C(CCN1Cc2ccccc2C1)c1ccc2c(c1)OCCO2`, 4.72.
As for `Cc1cc2ncn(/N=C/c3ccc([N+](=O)[O-])o3)c2cc1C`, the figure is 4.31; as for `COc1ccc(C(=O)N/N=C/c2sc3ccccc3c2O)cc1`, 5.47; as for `C#CCOCCOCCOCCNc1nc(N2CCN(C(=O)CCCCCCCCCCNC(=O)[C@@H](CCSC)n3cc(CCO)nn3)CC2)nc(N2CCN(C(=O)CCCCCCCCCCNC(=O)[C@H]([C@@H](C)CC)n3cc(CCCCN=C(N)N)nn3)CC2)n1`, 5.01.
As for `COc1cccc(/C=N/NC(=O)C(=O)N2CCCC2)c1O`, the figure is 4.40.
With `CCn1nccc1C(=O)Nc1cc(Cl)cc(Cl)c1`, the pEC50 is 4.43.
In the case of `COc1cc([N+](=O)[O-])cc(/C=N/NC(=O)CSc2ccccn2)c1O` it was 4.46.
In the case of `Nc1nc(F)nc2c1ncn2[C@@H]1O[C@H](CO)[C@@H](O)[C@H]1O` it was 6.46.
In the case of `CNCC[C@H](Oc1cccc2ccccc12)c1cccs1` it was 4.74; in that of `Fc1ccc(Nc2nnc(C(F)(F)F)s2)cc1Cl`, 4.73.
On to `O=C(Nc1nnc(C(F)(F)F)s1)c1ccc(Br)s1`, for which the negative-log EC50 (pEC50) was 4.65.
For the molecule `CCCCCCCCCCOC(=O)Cn1c(COc2cccc(C)c2)[n+](C)c2ccccc21`, the pEC50 was 5.61.
In the case of `O=C(CSc1nc2ccccc2s1)N/N=C/c1cc([N+](=O)[O-])ccc1O` it was 4.56; in that of `O=C(Nc1nnc(-c2cccs2)o1)c1cccc(C(F)(F)F)c1`, 4.85; in that of `Cc1ccccc1-n1ncc2c([N+](=O)[O-])cc([N+](=O)[O-])cc21`, 4.57.
As for `O=Nc1ccc(O)c2ncccc12`, the figure is 5.68.
As for `N=c1c2c(n(Cc3ccc(Cl)cc3)c3c1CCC3)CCC2`, the figure is 4.95.
For `c1ccc2c(c1)nc(N1CCOCC1)c1c3ccccc3[nH]c21`, the pEC50 is more than 7.00.
For `Cc1cc(C(C)(C)CC(C)(C)C)ccc1OCCOCC[N+](C)(C)Cc1ccccc1`, the negative logarithm of the EC50 (pEC50) is 5.93.
Turning to `CN(C)CCCN1c2ccccc2Sc2ccc(Cl)cc21`, the pEC50 is 5.25 and 4.91.
As for `CC1CCC(C(C)C)C(OC(=O)Cn2c(COc3ccccc3)[n+](C)c3ccccc32)C1` (stereo not drawn), the pEC50 was 5.63.
In the case of `Fc1ccc([C@@H]2CCNC[C@H]2COc2ccc3c(c2)OCO3)cc1` it was 5.12.
On to `N=c1n(Cc2ccc(Cl)cc2)c2ccccc2n1CC(O)COc1ccccc1` (stereo not drawn), for which the pEC50 was 5.27.
As for `CCc1ccc2c(c1)Sc1ccccc1CC2N1CCN(C)CC1` (stereo not drawn), the figure is 4.93; as for `CCOC(=O)Cn1c(=N)n(CCOc2ccc3ccccc3c2)c2ccccc21`, 4.75.
As for `COc1ccc(OCC(=O)Nc2ccc3c(c2)nc(CCN2CCC(C)CC2)n3C)cc1`, the figure is 4.45; as for `c1cc2c(cc1Oc1nc(N3CCOCC3)nc(N3CCOCC3)n1)OCO2`, more than 7.00; as for `O=C(CNC(=O)c1cccc(F)c1)N/N=C/c1ccc([N+](=O)[O-])s1`, 4.59.
As for `O=C(O)c1cn(C2CC2)c2cc(N3CCN(S(=O)(=O)c4ccc5c(c4)OCCO5)CC3)c(F)cc2c1=O`, the figure is more than 7.00; as for `Oc1c(CN2CCCCC2)cc(Br)c2cccnc12`, 5.58.
As to `COc1ccccc1Nc1nc(NCC2CCCO2)c2ccccc2n1` (stereo not drawn), the pEC50 was 4.85.
Regarding `Cc1ccc(NC(=O)c2ccc([N+](=O)[O-])o2)c(C)c1`, the pEC50 is 4.92.
In the case of `c1ccc(Nc2ccnc(Nc3ccccc3)n2)cc1` it was 4.38; in that of `CN(O)/C=c1/ccc2c(n1)C(=O)C=CC=2`, 4.59.
In the case of `Nc1cccc2nc3ccccc3cc12`, the pEC50 is 5.27.
As for `CN(C)CC/C=C1\c2ccccc2Sc2ccc(Cl)cc21`, the figure is 4.77; as for `COc1cc(/C=C/[N+](=O)[O-])ccc1O`, 4.92; as for `CN1CCc2c(sc(NC(=O)c3ccc([N+](=O)[O-])o3)c2C(N)=O)C1`, 6.15.
In the case of `COc1ccc(OC)c(S(=O)(=O)N2CCC(C(=O)NCc3ccccc3OC)CC2)c1` it was more than 7.00.
In the case of `c1cc2c(cc1C1CCCCC1)c1c3n2CCN=C3CCC1` it was 4.92; in that of `CN(C)c1ccc(/C=C/c2ccc3ccccc3[n+]2C)cc1`, 6.15; in that of `O=C(N/N=C/c1ccc(O)c(O)c1)C1c2ccccc2Oc2ccccc21`, 4.38.
`CC(NCC(O)COCCC12CC3CC(CC(C3)C1)C2)c1ccccc1` (stereo not drawn): the negative-log EC50 (pEC50) was 5.01.
In the case of `Nc1cc2c3c(cccc3c1)C(=O)N(CCN1CCCC1)C2=O` it was 4.95; in that of `O=C1C(=O)c2ccccc2-c2ccccc21`, 5.65; in that of `CC(=O)NC(c1ccc2ccccc2c1)c1ccc2cccnc2c1O` (stereo not drawn), 6.44.
As for `NC(=NCCCCCCN=C(N)/N=C(\N)Nc1ccc(Cl)cc1)/N=C(\N)Nc1ccc(Cl)cc1`, the figure is 5.46 and 5.79 and 5.41; as for `OCCCNc1c2ccccc2nc2ccccc12`, 5.67; as for `c1ccc2c(NCCc3c[nH]c4ccccc34)c3ccccc3nc2c1`, 5.36.
As for `COc1cc(Br)cc(C=Nc2cccc(C(F)(F)F)c2)c1O`, the figure is 4.30; as for `CN1CCN(C2=Cc3ccccc3Sc3cc(F)ccc32)CC1`, 5.09.
In the case of `CCCCCCCCCCCCCCCC[n+]1ccc(C(N)=O)cc1`, the pEC50 is 6.17.

Values taken from PubChem BioAssay AID2252 (Southern Research Specialized Biocontainment Screening …, 2010).
